Measured values taken from the supplement of paper PMC10307832.

Key:
Test in all cases: relative viability (nuclei count vs DMSO), 5 days (fraction); higher = more cells survive
Crizotinib = compound: C[C@@H](Oc1cc(-c2cnn(C3CCNCC3)c2)cnc1N)c1c(Cl)ccc(F)c1Cl [Crizotinib]
Summary of the method: (§1)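 Lung cancer cell lines in 1536-well plates were kept overnight at 37 °C, then pinned with five library-drug doses (not always all listed) spaced by √10 on vehicle-anchored plates. After 5 days without medium change, cells were fixed, permeabilised and Hoechst-stained in one step, imaged at 4×, and nuclei were counted with MetaXpress. Viability is treated-well nuclei divided by vehicle-well nuclei, taken as the median over plates. Plates passed only with control CV below 25% and at least one doubling.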

Carfilzomib = compound: CC(C)C[C@H](NC(=O)[C@H](CCc1ccccc1)NC(=O)CN1CCOCC1)C(=O)N[C@@H](Cc1ccccc1)C(=O)N[C@@H](CC(C)C)C(=O)[C@@]1(C)CO1 [Carfilzomib]
Summary of the method: as §1

Olaparib = compound: O=C(c1cc(Cc2n[nH]c(=O)c3ccccc23)ccc1F)N1CCN(C(=O)C2CC2)CC1 [Olaparib]
Summary of the method: as §1

Cell Line | relative viability (Crizotinib; 0.01 µM) | relative viability (Crizotinib; 0.03162 µM) | relative viability (Crizotinib; 0.1 µM) | relative viability (Crizotinib; 0.3162 µM) | relative viability (Crizotinib; 1 µM) | relative viability (Crizotinib; 1 µM, anchor plate) | relative viability (Carfilzomib; 0.001 µM) | relative viability (Carfilzomib; 0.003162 µM) | relative viability (Carfilzomib; 0.01 µM) | relative viability (Carfilzomib; 0.03162 µM) | relative viability (Carfilzomib; 0.1 µM) | relative viability (Olaparib; 0.08 µM) | relative viability (Olaparib; 0.253 µM) | relative viability (Olaparib; 2.53 µM) | relative viability (Olaparib; 8 µM) | relative viability (Olaparib; 8 µM, anchor plate)
201T | 0.95 | 1 | 0.95 | 1.03 | 1 | 1.01 | 0.957 | 1.01 | 1.01 | 1.04 | 0.849 | 1.01 | 0.888 | 0.922 | 1.01 | 0.835
A549 | 0.963 | 1.03 | 0.948 | 1.04 | 0.987 | 0.755 | 0.967 | 1.03 | 0.954 | 0.525 | 0.043 | 1.13 | 0.875 | 0.898 | 0.681 | 0.361
A-427 | 0.965 | 1.03 | 1.03 |  | 1.01 | 0.906 | 0.936 | 1.15 | 0.957 | 0.479 | 0.134 | 1.09 | 0.945 | 0.884 | 0.782 | 0.713
ABC-1 | 0.845 | 0.885 | 0.995 | 0.878 | 0.982 | 1.18 | 0.92 | 0.75 | 0.39 | 0.221 | 0.291 | 1.15 | 0.882 | 0.863 | 0.932 | 0.847
BEN | 0.867 | 0.974 | 0.886 | 0.807 | 1.02 | 0.86 | 0.902 | 1.09 | 0.944 | 0.843 | 0.433 | 0.948 | 0.775 | 1.01 | 1.03 | 1.06
CAL-12T | 0.917 | 0.973 | 0.974 | 0.837 | 0.981 | 0.683 | 0.933 | 1.19 | 1.1 | 0.736 | 0.138 | 1.21 | 0.966 | 0.976 | 0.888 | 0.706
COR-L23 | 1.01 | 1.04 | 0.963 | 0.978 | 0.885 | 0.623 | 1.06 | 1.13 | 0.846 | 0.0978 | 0.0691 | 1.04 | 1.04 | 0.908 | 0.579 | 0.353
COR-L 105 | 0.844 | 0.938 | 0.901 | 0.847 | 0.932 | 0.826 | 1.06 | 0.931 | 0.962 | 0.318 | 0.26 | 0.896 | 0.87 | 0.763 | 0.785 | 0.697
Calu-6 | 0.986 | 1.03 |  | 0.957 | 1.01 | 0.768 | 0.992 | 1.09 | 0.92 | 0.306 | 0.11 | 1.13 | 0.936 | 0.937 | 0.789 | 0.584
ChaGo-K-1 | 0.977 |  | 0.953 | 0.769 | 0.976 | 1.11 | 0.884 | 1.05 | 1.01 | 0.864 | 0.304 | 1.05 | 0.925 | 0.906 | 0.788 | 0.422
EBC-1 | 0.965 | 1.05 | 0.976 | 0.17 | 0.199 | 0.192 | 1.01 | 1.09 | 0.642 | 0.11 | 0.103 | 1.2 | 0.883 | 0.98 | 0.752 | 0.703
EKVX | 0.969 | 0.941 | 0.933 | 0.847 | 0.982 | 0.967 | 0.913 | 1 | 1.17 | 0.76 | 0.369 | 1.03 | 0.885 | 0.969 | 1.03 | 0.884
EMC-BAC-2 | 1.08 | 0.96 | 0.98 |  | 0.923 | 0.767 | 0.957 | 1.18 | 1.04 | 0.972 | 0.432 | 1.1 | 0.91 | 1.05 | 0.849 | 0.477
EPLC-272H | 0.883 | 0.932 | 0.937 | 0.778 | 0.955 | 0.912 | 0.845 | 1.22 | 0.834 | 0.242 | 0.0648 | 1.17 | 0.889 | 0.968 | 0.878 | 0.832
H3255 | 0.963 | 0.993 | 0.991 | 0.911 | 1.03 | 0.934 | 0.973 | 1.09 | 1.11 | 0.718 | 0.373 | 1.01 | 0.869 | 1.05 | 0.924 | 0.579
HARA | 0.796 |  | 1.03 | 0.779 | 1.02 | 1.04 | 0.996 | 1.09 | 1.2 | 0.427 | 0.126 | 1.14 | 0.852 | 0.804 | 0.811 | 0.788
HCC-15 | 0.917 | 1.04 | 1.01 |  | 0.974 | 0.813 | 0.954 | 1.07 | 1.07 | 0.709 | 0.177 | 1.09 | 0.904 | 0.999 | 0.878 | 0.731
HCC-44 | 0.967 | 0.974 | 1.06 | 0.879 | 0.944 | 0.785 | 0.988 | 0.996 | 1.05 | 0.819 | 0.317 | 1.04 | 0.949 | 1.02 | 1.08 | 0.963
HCC-78 | 0.916 | 0.993 | 1.01 | 0.476 | 0.778 | 0.348 | 0.839 | 1.09 | 1.07 | 0.662 | 0.267 | 1.1 | 0.836 | 0.953 | 0.861 | 0.831
HCC-366 | 0.952 | 1.01 |  |  | 1.07 | 0.466 | 0.992 | 1.02 | 1.01 | 1.05 | 0.0704 | 1.05 | 0.988 | 0.943 | 0.862 | 0.352
HCC-827 | 0.985 | 1.03 | 1.03 | 0.901 | 1.03 |  | 1.05 | 1.05 | 1.09 | 0.97 | 0.647 | 0.999 | 0.989 | 0.962 | 0.966 | 0.61
HOP-62 | 0.96 | 1.01 | 1.03 | 0.874 | 1.04 | 1 | 1.04 | 1.09 | 0.92 | 0.251 | 0.106 | 1.08 | 0.984 | 0.997 | 0.722 | 0.384
